Here are results for three compounds from patent US10314815B2, “Polymorph of granaticin B” (Sloan-Kettering Institute for Cancer Research, priority 2014, dated 2019).

What all share (assay type): physicochemical
Data set [1] can be described thus: Stability of crystalline Form A compared with amorphous Compound 1. Particulars: crystalline Form A vs amorphous; traditional purification process.
The nature of a further data set: Hygroscopicity of Form A.
A short description of data set [2]: Chemical degradation under acidic conditions observed by HPLC. Particulars: acidic conditions (pH<4), ambient temperature. The text has this:
The degradation is caused by hydrolysis of the glycosidic bond, forming Granaticin A, the biosynthetic precursor of MSK-777. Consistently, in a time dependent HPLC experiment a simultaneous increase of Granaticin A chromatographic areas and decrease of Granaticin B areas is observed. The hydrolysis experiment and the almost identical UV spectra indicate that MSK-777 (Granaticin B) and Granatioin A share the same core structure and chromophore. Therefore the structural difference between Granaticin A and MSK-777 arises from a hydrolysable part (sugar moiety) of the latter compound.

Data set [3] can be described thus: UV-Vis pH-dependent colour change (bathochromic shift) of MSK-777. Particulars: colour change red to blue, basic conditions; read-out: approximate averaged pKa values of the acidic phenol protons (inflection point of colour change). From the text:
These absorptions indicate a benzoisochromanequinones (BIQ) chromophore. The broad adsorption in the visible region (around 527 nm) is responsible for the intense red color of the substance.
Under basic conditions (pH>8) a bathochromic shift of Vis-absorption (ca. 40 nm) is observed, indicating ionization of slightly acidic phenolic protons. This pH dependent indicatory behavior is characteristic to the BIQ chromophore and is visually observed as the solution turns from red to blue.

Turning to `CC1OC2CC(=O)OC2C2=C1C(=O)c1c(O)c3c(c(O)c1C2=O)C1CC(OC2CCC(O)C(C)O2)C3(O)C(C)O1` (centres unmarked) [Amorphous Compound 1, granaticin B], the “stability of solid form” value in data set [1] is “less stable and prone to degradation”.

`CC1OC2CC(=O)OC2C2=C1C(=O)c1c(O)c3c(c(O)c1C2=O)C1CC(OC2CCC(O)C(C)O2)C3(O)C(C)O1` (centres unmarked) [Form A of Compound 1, granaticin B]: the “stability of solid form” value in data set [1] is “more stable than amorphous Compound 1”. Moreover, the hygroscopicity result in the data set “Hygroscopicity of Form A” is on record as “substantially non-hygroscopic”.

As usually defined, the pKa is the pH at which an ionisable group is half protonated. Turning to `CC1OC2CC(=O)OC2C2=C1C(=O)c1c(O)c3c(c(O)c1C2=O)C1CC(OC2CCC(O)C(C)O2)C3(O)C(C)O1` (centres unmarked) [MSK-777, granaticin B], the “degradation (hydrolysis of the glycosidic bond forming Granaticin A)” value in data set [2] was “slow degradation”. Moreover, in data set [3], the pKa is roughly 8.5.
